Data as given in patent publication US11985994B2, “Sweetener and flavor compositions, methods of making and methods of use thereof” (EPC Natural Products Co., Ltd., priority 2018, dated 2024).

Assays:
Design in all cases: species or system human
[1] = Degree of kokumi of Tamarind gum solution (Example 189)
Description: Tamarind gum was added to pure water to prepare several Tamarind gum solutions with a concentration gradient as standard solutions for judging the degree of kokumi of the Tamarind gum solutions.
A Tamarind gum solution was prepared at a concentration of 400 ppm. Different amounts of MRP, S-MRP or TS-MRP were added to the solution such that the concentration of MRP, S-MRP or TS-MRP in the solution was 50 ppm, 75 ppm, 100 ppm, 125 ppm or 150 ppm.
(§1) Method: For evaluation of the degree of kokumi, the sample solutions (described above) were tested by a panel of four people. The panel was asked to taste the sample solutions and compare them to standard solutions (described above) to judge to which standard solution the degree of kokumi of sample solution is similar 1 trained taster tasted independently the samples first. The tester was allowed to re-taste, and then made judgment. Afterwards, another 3 tasters tasted and the judgments were discussed openly to find a suitable description. In the case that more than 1 taster disagreed with the result, the tasting was repeated.

[2] = Degree of kokumi of carrageenan solution (Example 187)
Description: Carrageenan was added to pure water to prepare several carrageenan solutions with a concentration gradient as standard solutions for judging the degree of kokumi of the carrageenan solutions.
A carrageenan solution was prepared at a concentration of 400 ppm. Different amounts of MRP, S-MRP or TS-MRP were added to the solution such that the concentration of MRP, S-MRP or TS-MRP in the solution was 50 ppm, 75 ppm, 100 ppm, 125 ppm or 150 ppm.
as §1, with “judge” for “judge to”, “similar to.” for “similar”, “description in” for “description. In”

[3] = Degree of kokumi of gellan gum solution (Example 188)
Description: Gellan gum was added to pure water to prepare several gellan gum solutions with a concentration gradient as standard solutions for judging the degree of kokumi of the gellan gum solutions.
A gellan gum solution was prepared at a concentration of 400 ppm. Different amounts of MRP, S-MRP or TS-MRP were added to the solution such that the concentration of MRP, S-MRP or TS-MRP in the solution was 50 ppm, 75 ppm, 100 ppm, 125 ppm or 150 ppm.
as §1

Q: For Tamarind gum, which “concentration above which taste like starch paste is clearly felt” value [1] is on record?
A: exceeds 1400 ppm

Q: For carrageenan, which “concentration above which taste like starch paste is clearly felt” value [2] is on record?
A: exceeds 1000 ppm

Q: Which “concentration above which taste like starch paste is clearly felt” value [3] does the source give for gellan gum here?
A: exceeds 1400 ppm
